From patent US11753363B2, “13-oxidized ingenol derivative and use thereof” (Tianjin Pharmaceutical Da Ren Tang Group Corp., Ltd. …, priority 2017, dated 2023) come the findings set out here.

In brackets after ≈: the same amount, converted by molar mass. Bounds are passed on as bounds.

Type in all cases: cell-based
For test [1], the system named is SMMC-7721 (human liver cancer cells). Put plainly: Inhibition of proliferation of tumor cell lines (MTT), SMMC-7721. The note with it: Homo sapiens, SMMC-7721, 72 h, read-out: IC50 value of compound for inhibition of proliferation of tumor cell lines, SMMC-7721. On the procedure: (§1) In this example, the inhibitory activity of compounds of the present invention against proliferation of seven human tumor cell lines and mouse B16-F10 melanoma cells was tested in vitro, and the IC50 value (50% inhibitory concentration) of compounds against each tumor cell line was calculated.
(§2) The seven human tumor cell lines are: MCF-7 (human breast cancer cells), LOVO (human colon cancer cells), A549 (human lung cancer cells), BGC-823 (human gastric cancer cells), SMMC-7721 (human liver cancer cells), K562 (human leukemia cells), and HeLa (human cervical cancer cells).
(§3) IC50 values of the compounds for A549, BGC-823, LOVO, MCF-7, SMMC-7721, HeLa, and B16-F10 cells were tested. The above cells were routinely cultured in 1640 nutrient solution containing 10% calf serum, with passage for 1 time every 2 days, and the cells in logarithmic growth phase were taken for experiments. After the A549, BGC-823, LOVO, MCF-7, SMMC-7721, HeLa and B16-F10 cells in logarithmic growth phase were subjected to 0.25% trypsin digestion, they were blown into a single cell suspension, and then the cell concentration was adjusted to about 1×10^5·mL^−1 using RPMI 1640 solution containing 10% calf serum. The cells were seeded in a 96-well culture plate at 100 μL per well, and cultured for 24 hours until the cells were attached. K562 cells were taken and centrifuged and diluted into 2×10^5·mL^−1 single cell suspension with RPMI 1640 solution containing 10% calf serum, and inoculated into a 96-well culture plate at 100 μL per well.
(§4) 100 μL of sample solution with different concentrations to be tested were added to the above 96-well plate, each concentration was added to 4 wells in parallel, and the cell control group was added with an equal volume of RPMI 1640 medium containing 10% calf serum to make a reaction volume of 200 μL. After incubating in an incubator at 37° C., 5% CO2 for 72 h, 10 μL of 5 mg·mL^−1 MTT solution was added to each well, and incubated at 37° C. for 4 h. The supernatant was carefully aspirated, 180 μL of DMSO was added to each well followed by shaking, and the absorbance (OD) value was measured at 570 nm on the microplate reader. The inhibition rate was calculated, and regression equation was established with the logarithmic value of the sample concentration and the inhibition rate (IR) to find the IC50 value of the compound against the cells to be tested. IR (%)=(1−OD value of the experimental group/OD value of the cell control group)×100%

The test system of test [2] is LOVO (human colon cancer cells). The test is described as follows: Inhibition of proliferation of tumor cell lines (MTT), LOVO. The note with it: Homo sapiens, 72 h, read-out: IC50 value of compound for inhibition of proliferation of tumor cell lines, LOVO. On the procedure: as §1, §2, §3, §4
Test [3] relates to BGC-823 (human gastric cancer cells). Put plainly: Inhibition of proliferation of tumor cell lines (MTT), BGC-823. The note with it: Homo sapiens, BGC-823, 72 h, read-out: IC50 value of compound for inhibition of proliferation of tumor cell lines, BGC-823. On the procedure: as §1, §2, §3, §4
Test [4] has as its system MCF-7 (human breast cancer cells). The test is described as follows: Inhibition of proliferation of tumor cell lines (MTT), MCF-7. The note with it: Homo sapiens, MCF7, MCF-7, 72 h, read-out: IC50 value of compound for inhibition of proliferation of tumor cell lines, MCF-7. On the procedure: as §1, §2, §3, §4
Test [5] has as its system K562 (human leukemia cells). Put plainly: Inhibition of proliferation of tumor cell lines (MTT), K562. The note with it: Homo sapiens, K562, 72 h, read-out: IC50 value of compound for inhibition of proliferation of tumor cell lines, K562. As to the method:
as §1, §2, §3, §4

The test system of test [6] is A549 (human lung cancer cells). Put plainly: Inhibition of proliferation of tumor cell lines (MTT), A549. The settings on record: Homo sapiens, A549, 72 h, read-out: IC50 value of compound for inhibition of proliferation of tumor cell lines, A549. On the procedure:
as §1, §2, §3, §4

For test [7], the system named is HeLa (human cervical cancer cells). Put plainly: Inhibition of proliferation of tumor cell lines (MTT), HeLa. The settings on record: Homo sapiens, 72 h, read-out: IC50 value of compound for inhibition of proliferation of tumor cell lines, HeLA. As to the method:
as §1, §2, §3, §4

Test [8] relates to neutrophilic granulocytes. The test is described as follows: Neutrophil oxidative burst (luminol chemiluminescence). The note with it: Neutrophil; 3 μg/mL; rat neutrophils; (Csample−Ccontrol)/Ccontrol×100%; read-out: Efficiency of compounds in stimulating neutrophil oxidative burst. As to the method: This example investigated the effect of compound on neutrophil oxidative burst and calculated the efficiency of each compound in stimulating neutrophil oxidative burst.
Blood was taken from the abdominal aorta of rat. The neutrophilic granulocytes were isolated by the operational procedure of the rat peripheral blood neutrophil isolation kit. The neutrophilic granulocytes were re-suspended by Hanks, and were plated in a 96-well white plate at 1×10^5 cells/well, 80 μL/well; 1 mM of Luminol was added at 10 μL/well; 10 μL of the sample was added to each well, and the degree of oxidative burst was evaluated by chemiluminescence. Calculation formula of Efficiency: Efficiency (%)=(Csample−Ccontrol)/Ccontrol×100%

As to `CCCCC/C=C/C=C/C(=O)O[C@@]12C[C@@H](C)[C@]34C=C(C)[C@H](O)[C@@]3(O)[C@H](O)C(CO)=C[C@H](C4=O)[C@@H]1C2(C)C` [Compound 1b, 13-O-(2′E,4′E-decadienoyl)-ingenol], the IC50 in test [1] was found to be 8.01 mg/L (≈ 15.6 µM); in test [2], 12.9 mg/L (≈ 25.1 µM); in test [3], 10.6 mg/L (≈ 20.6 µM); in test [4] it was 11.8 mg/L (≈ 22.9 µM); in test [5] it was 8.97 mg/L (≈ 17.4 µM); in test [6], 12.8 mg/L (≈ 24.9 µM).
Turning to `CCCCCCCCCCCC(=O)O[C@@]12C[C@@H](C)[C@]34C=C(C)[C@H](O)[C@@]3(O)[C@H](O)C(CO)=C[C@H](C4=O)[C@@H]1C2(C)C` [Compound 1c, 13-O-dodecanoyl-ingenol], the IC50 came out at 6.49 mg/L (≈ 11.9 µM) in test [1]; 8.97 mg/L (≈ 16.4 µM) in test [2]; 6.19 mg/L (≈ 11.3 µM) in test [3]; 6.36 mg/L (≈ 11.6 µM) in test [4]; 5.51 mg/L (≈ 10.1 µM) in test [5]; 15.1 mg/L (≈ 27.6 µM) in test [7]. Moreover, in test [6], the IC50 was 11.1 mg/L (≈ 20.3 µM).
Consider `CCCCCCCCCCCC(=O)O[C@@]12C[C@@H](C)[C@]34C=C(C)[C@H](O)[C@@]3(O)[C@H](O)C(C)=C[C@H](C4=O)[C@@H]1C2(C)C` [Compound 1d, 20-deoxy-13-O-dodecanoyl-ingenol], for which the IC50 was determined as 31.5 mg/L (≈ 59.4 µM) in test [1]; 19.2 mg/L (≈ 36.2 µM) in test [2]; 15.4 mg/L (≈ 29 µM) in test [3]; 29.2 mg/L (≈ 55 µM) in test [4]; 6.88 mg/L (≈ 13 µM) in test [5]; 26.8 mg/L (≈ 50.5 µM) in test [6].
For the compound `CC1=C[C@]23C(=O)[C@@H](C4OC4(C)[C@@H](O)[C@]2(O)[C@H]1O)[C@H]1C(C[C@H]3C)C1(C)C` (stereo partly shown) [Compound 1e, 6,7-epoxy-20-deoxy-ingenol], the IC50 in test [1] is above 200 mg/L; in test [2], above 200 mg/L; in test [3], above 200 mg/L; in test [4], above 200 mg/L; in test [5], 5.52 mg/L (≈ 15.8 µM); in test [6], above 200 mg/L.
As for `CCCCCCCCCCCC(=O)O[C@@]12C[C@@H](C)[C@]34C=C(C)[C@H](O)[C@@]3(O)[C@H](O)C3(COC(=O)C(C)C(C)C)OC3[C@H](C4=O)[C@@H]1C2(C)C` (stereo partly shown) [Compound 1f, 6,7-epoxy-20-O-(2,3-dimethylbutyryl)-13-O-dodecanoyl-ingenol], the IC50 in test [7] amounted to 16.8 mg/L (≈ 25.4 µM).
Take `CCCCCCCCCCCC(=O)O[C@@]12C[C@@H](C)[C@]34C=C(C)[C@H](O)[C@@]3(O)[C@@H]3OC(C)(C)OCC3=C[C@H](C4=O)[C@@H]1C2(C)C` [Compound 2b, 13-O-dodecanoyl-ingenol 5,20-acetonide]: the IC50 came out at 15.2 mg/L (≈ 25.9 µM) in test [1]; 23 mg/L (≈ 39.2 µM) in test [2]; 17.8 mg/L (≈ 30.3 µM) in test [3]; 13.7 mg/L (≈ 23.3 µM) in test [4]; 0.85 mg/L (≈ 1.45 µM) in test [5]; 15 mg/L (≈ 25.6 µM) in test [6].
Take `CCCCCCCCCCCC(=O)O[C@@]12C[C@@H](C)[C@]34C=C(C)[C@@H]5OC(C)(C)O[C@@]53[C@H](O)C(CO)=C[C@H](C4=O)[C@@H]1C2(C)C` [Compound 2c, 13-O-dodecanoyl-ingenol 3,4-acetonide]: the IC50 amounted to 8.21 mg/L (≈ 14 µM) in test [1]; 10.3 mg/L (≈ 17.6 µM) in test [2]; 5.3 mg/L (≈ 9.03 µM) in test [3]; 8.89 mg/L (≈ 15.1 µM) in test [4]; 0.42 mg/L (≈ 0.716 µM) in test [5]; 9.59 mg/L (≈ 16.3 µM) in test [6]. Moreover, in test [8], the activation at 3 µg/mL was found to be 64.6%.
Take `CCCCCC(=O)O[C@@]12C[C@@H](C)[C@]34C=C(C)[C@H](O)[C@@]3(O)[C@H](O)C(CO)=C[C@H](C4=O)[C@@H]1C2(C)C` [Compound 6, 13-O-n-hexanoyl-ingenol]: the activation at 3 µg/mL in test [8] amounted to 52.2%.
On to `C/C=C(/C)C(=O)OCC1=C[C@@H]2C(=O)[C@]3(C=C(C)[C@H](OC(=O)/C(C)=C\C)[C@@]3(O)[C@@H]1O)[C@H](C)C[C@]1(OC(=O)CCCCCCCCCCC)[C@H]2C1(C)C` [Compound 15a, 3,20-O-diangeloyl-13-O-dodecanoyl-ingenol], for which the IC50 in test [1] is 26.9 mg/L (≈ 37.8 µM); in test [2], above 100 mg/L; in test [3], above 100 mg/L; in test [4] it was above 100 mg/L; in test [5] it was 3.22 mg/L (≈ 4.53 µM); in test [6], above 100 mg/L.
